In series [1] the target is T1, NK-1 receptor (Meriones unguiculatus, UniProt Q5DUB1).
T1 construct: centrally acting NK-1 receptor antagonist in vivo in the gerbil; from tissue; host or cells: brain of living Mongolian gerbils
The series can be described thus: NK-1 agonist (GR73632, icv)-induced foot-tapping behavior in gerbils. The format is in vivo. Particulars: gerbil, 0.1 mg/kg po. The method, then: Male Mongolian gerbils (Harlan Sprague Dawley, Indianapolis, IN) weighing 26 to 40 grams are administered the selective neurokinin-1 receptor agonist GR73632 (3 pmol) via direct, vertical, free-hand intracerebroventricular (icy) injection to a depth of 4.5 mm below bregma with a cuffed 27-gauge needle attached to a 50 μl Hamilton syringe. Immediately after injection, animals are placed individually into isolated chambers with pressure-sensitive velocimeter platform floors (San Diego Instruments acoustic startle apparatus) that detect and quantify vibration. The San Diego Instruments “SR” DOS-based computer program is used on a PC to record the number of foot-taps over the following 6 to 10 minutes, beginning 30 seconds after the floor is lightly tapped. […] The total number and average intensity of events over the duration is determined. Total number of taps is analyzed with one-way ANOVA and post-hoc Dunnett's test using JMP statistical software.
A dose-response curve (with doses of 0.3, 1, 3 and 10 pmols, icy) is initially generated with the NK-1 agonist GR73632.
NK-1 antagonists are tested for their ability to attenuate GR73632-induced foot tapping. NK-1 antagonists are administered (po) via oral feeding tube at doses and time points specified in each experiment. […]
NK-1 antagonists are administered at multiple doses (at least 3; one dose per animal) and response to GR73632 is measured. […]

For series [2], the system named is apomorphine-induced emesis. The series can be described thus: Emetic challenge study (apomorphine-induced emesis) in beagle dogs. The series is classed as in vivo, beagle dog. Particulars: for Total No. Emetic Episodes: apomorphine 0.1 mg/kg iv 2 hours later, five dogs, APO control 28. The method, then: Over the five (5) weeks of the study, each animal receives each of the treatments, but only one per week. The purpose of this study is to determine if tradipitant suppresses apomorphine-induced emesis.
The mid dose of tradipitant is the approximate half-log interval between the low and high doses.
All animals are dosed over a period of five (5) weeks, with each dog receiving one of five different treatments on each day of dosing.
All dogs are fasted overnight prior to each treatment day and then fed approximately one (1) hour after oral dosing (approximately one (1) hour prior to administration of apomorphine). Individual doses are adjusted weekly for changes in body weight.
The dose regimen consists of a 5×5 Latin square design, in which each subject receives 1 dose or dose combination per week (6 day washout) as shown in Table 3 below.

The target in series [3] is T2, NK-2 receptor (Homo sapiens, UniProt P21452).
T2 sequence (P21452 1-398): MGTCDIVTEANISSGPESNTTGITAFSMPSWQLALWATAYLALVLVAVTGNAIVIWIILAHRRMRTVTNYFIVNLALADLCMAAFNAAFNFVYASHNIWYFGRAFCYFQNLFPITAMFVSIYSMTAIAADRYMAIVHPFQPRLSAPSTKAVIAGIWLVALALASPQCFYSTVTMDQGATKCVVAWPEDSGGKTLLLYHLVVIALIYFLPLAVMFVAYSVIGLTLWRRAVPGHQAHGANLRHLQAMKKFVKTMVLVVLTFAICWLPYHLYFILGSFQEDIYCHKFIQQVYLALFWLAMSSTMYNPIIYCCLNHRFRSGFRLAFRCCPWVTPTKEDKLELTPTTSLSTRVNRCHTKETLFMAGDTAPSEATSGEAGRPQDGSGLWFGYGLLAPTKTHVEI
The series is described as follows: NK-2 receptor inhibition. The series is classed as binding.

Series [4] has as its system small bowel transit and gastric emptying. The series is described as follows: Clinical study of gastrointestinal motility (gamma scintigraphy). The format is in vivo, human. As to conditions: healthy subjects, 20 mg or 200 mg single oral dose; study underpowered for this parameter. The method, then: A single-center, randomized, double-blind, placebo-controlled study is conducted to investigate the effect of tradipitant on small bowel transit time. A total of 15 healthy subjects, including 12 men and 3 women between the ages of 19 and 63 years, are enrolled in the study and receive at least 1 dose of study medication. A total of 13 subjects complete the study. Subjects are randomized to receive 20 mg of tradipitant, 200 mg of tradipitant, or placebo as a single oral dose within each of 3 periods, co-administered with a capsule radiolabeled with a maximum of 1MBq ^111In. Four hours post-dose, all subjects also receive a second capsule radiolabeled with a maximum of 4MBq ^99mTc. Each subject receives all 3 doses during the study. For all dosing regimens, in vivo gamma scintigraphic studies are performed at predetermined intervals, and the following scintigraphic parameters are analyzed: onset and completion of gastric emptying, onset and completion of colon arrival, initiation and completion of small bowel transit, and initial and complete disintegration of the capsule (anatomical location and time).

Series [5] in a line: Plasma concentration 2 hours post-dose in beagle dogs. The format is in vivo. As to conditions: Dog 1-5. The method, then: All animals are dosed over a period of five (5) weeks, with each dog receiving one of five different treatments on each day of dosing. […] In cases where apomorphine is administered alone, without prior treatment with tradipitant or aprepitant, apomorphine is given at approximately the same time as when given in combination with tradipitant or aprepitant.

For series [6], the target named is T3, NK-3 receptor (Homo sapiens, UniProt P29371).
T3 sequence (P29371 1-465): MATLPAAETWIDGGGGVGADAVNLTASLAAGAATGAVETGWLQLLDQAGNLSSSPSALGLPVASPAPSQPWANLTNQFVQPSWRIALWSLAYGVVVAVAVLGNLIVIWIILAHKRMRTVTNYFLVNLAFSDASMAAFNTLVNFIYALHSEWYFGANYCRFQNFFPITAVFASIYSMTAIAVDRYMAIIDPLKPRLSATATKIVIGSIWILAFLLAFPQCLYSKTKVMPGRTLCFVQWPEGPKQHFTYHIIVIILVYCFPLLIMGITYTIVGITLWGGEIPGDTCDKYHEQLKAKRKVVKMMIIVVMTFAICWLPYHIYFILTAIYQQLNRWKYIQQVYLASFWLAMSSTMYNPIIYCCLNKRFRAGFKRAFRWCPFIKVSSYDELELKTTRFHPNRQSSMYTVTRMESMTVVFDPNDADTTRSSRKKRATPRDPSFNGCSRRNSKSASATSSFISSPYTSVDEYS
The series is described as follows: NK-3 receptor inhibition. The series is classed as binding.

Several values for one entry are separate records, joined by “and”; a condition that tells them apart may be missing. Equal values may be shown once. Marks after values point to notes of the source that are not given here.

T1 sequence (Q5DUB1 whole entry): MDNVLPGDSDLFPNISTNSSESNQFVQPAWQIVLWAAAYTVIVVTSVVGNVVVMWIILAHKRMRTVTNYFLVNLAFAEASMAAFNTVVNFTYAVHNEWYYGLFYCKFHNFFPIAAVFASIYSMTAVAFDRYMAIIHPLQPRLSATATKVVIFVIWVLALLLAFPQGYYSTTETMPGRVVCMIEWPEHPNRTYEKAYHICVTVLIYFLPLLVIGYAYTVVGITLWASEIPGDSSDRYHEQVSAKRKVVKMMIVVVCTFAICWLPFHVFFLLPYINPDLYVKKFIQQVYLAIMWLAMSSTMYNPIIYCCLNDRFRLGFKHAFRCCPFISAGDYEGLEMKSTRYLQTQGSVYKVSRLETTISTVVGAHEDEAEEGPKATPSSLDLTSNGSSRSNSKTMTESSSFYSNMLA

Take `O=C(c1ccccc1Cl)c1cccnc1-c1nnn(Cc2cc(C(F)(F)F)cc(C(F)(F)F)c2)c1-c1ccncc1` [Tradipitant, {2-[1-(3,5-bistrifluoromethylbenzyl)-5-pyridin-4-yl-1H-[1,2,3]triazol-4-yl]-pyridin-3-yl}-(2-chlorophenyl)-methanone]: the “time after administration up to which foot-tapping behavior is significantly inhibited” value in series [1] is reported as “up to 7 hours”. For the same compound, the “Total No. Emetic Episodes” value in series [2] (0.3 mg/kg oral), in series [2] (1.0 mg/kg oral) and in series [2] (3.0 mg/kg oral) was 1** each time. The “effect against apomorphine-induced emesis” value in series [2] (each dose tested (0.3, 1.0, and 3.0 mg/kg)) is reported as “effective”. Besides, the “inhibition at NK-2 receptor” value in series [3] is recorded as “no significant inhibition”. The “effect on gastric emptying” value in series [4] is “No effect”. In addition, the “Concentration of tradipitant in plasma, individual dogs” value in series [5] (0.3 mg/kg oral) is 90.93 ng/mL and 83.38 ng/mL and 22.59 ng/mL and 51.20 ng/mL and 41.33 ng/mL; in series [5] (1.0 mg/kg oral), 240.84 ng/mL and 100.97 ng/mL and 61.56 ng/mL and 175.58 ng/mL and 86.49 ng/mL; in series [5] (3.0 mg/kg oral) it was 316.20 ng/mL and 682.91 ng/mL and 119.79 ng/mL and 122.73 ng/mL and 256.58 ng/mL. Besides, the “inhibition at NK-3 receptor” value in series [6] is “no significant inhibition”.

For the origin of these results see patent US20240299373A1, “IMPROVED USE OF TRADIPITANT IN MOTION SICKNESS” (Vanda Pharmaceuticals Inc., priority 2023, published 2024).
